Experimental data as given in patent publication US10878939B2, “Methods and compositions for personalized pain management” (Children's Hospital Medical Center, priority 2014, dated 2020).

System: children undergoing tonsillectomy
Experiment: Postoperative analgesia measurements by ABCB1 genotype (Example 7)
Details: for Maximum FLACC: median (IQR); for Post-Operative morphine: patients with at least one post-operative intervention
[1] = Blacks, ABCB1 Rs1128503 CC, N=24
[2] = Blacks, ABCB1 Rs1128503 TC, N=18
[3] = Blacks, ABCB1 Rs1128503 TT, N=2
[4] = Blacks, ABCB1 Rs2032582 GA, N=1
[5] = Blacks, ABCB1 Rs2032582 GG, N=35
[6] = Blacks, ABCB1 Rs2032582 GT, N=8
[7] = Blacks, ABCB1 Rs2229109 CA, N=1
[8] = Blacks, ABCB1 Rs2229109 CC, N=43
[9] = Blacks, ABCB1 Rs9282564 AA, N=41
[10] = Blacks, ABCB1 Rs9282564 GA, N=3
[11] = Blacks, ABCB1 rs10456542 CC, N=27
[12] = Blacks, ABCB1 rs10456542 TC, N=14
[13] = Blacks, ABCB1 rs10456542 TT, N=3
[14] = Whites, ABCB1 Rs1128503 CC, N=70
[15] = Whites, ABCB1 Rs1128503 TC, N=102
[16] = Whites, ABCB1 Rs1128503 TT, N=47
[17] = Whites, ABCB1 Rs2032582 GA, N=7
[18] = Whites, ABCB1 Rs2032582 GG, N=65
[19] = Whites, ABCB1 Rs2032582 GT, N=100
[20] = Whites, ABCB1 Rs2032582 TA, N=1
[21] = Whites, ABCB1 Rs2032582 TT, N=46
[22] = Whites, ABCB1 Rs2229109 CA, N=14
[23] = Whites, ABCB1 Rs2229109 CC, N=205
[24] = Whites, ABCB1 Rs9282564 AA, N=171
[25] = Whites, ABCB1 Rs9282564 GA, N=46
[26] = Whites, ABCB1 Rs9282564 GG, N=2
[27] = Whites, ABCB1 rs10456542 CC, N=49
[28] = Whites, ABCB1 rs10456542 TC, N=100
[29] = Whites, ABCB1 rs10456542 TT, N=70

Protocol: All participants received standard perioperative care. Anesthesia was induced using sevoflurane followed by a propofol (2 mg/kg) bolus to facilitate endotracheal intubation. Anesthesia was maintained with sevoflurane without the use of neuromuscular blockade. […] All children receive prophylactic ondansetron (0.1 mg/kg) and dexamethasone (0.1 mg/kg) intraoperatively.
Blood was collected from each participant in the operating room under anesthesia and the DNA was isolated the same day and stored at −20 degree Celsius. Batched genotyping was performed after clinical data was entered on all study participants. The TaqMan allelic discrimination system assays and Genotyper Softerware Version 1.0.1 (Life Technologies, Applied Biosystems, Forest City, Calif.) were used to analyse and report the following ABCB1 polymorphisms: rs1045642, rs2032582, rs1128503, rs2229109, and rs9282564.
Prior to analysis, data qualities were examined. For the ABCB1 variants, allelic and genotype frequencies were assessed in white and black patients separately, and Hardy Weinberg equilibrium (HWE) was tested. To analyze binary outcomes (RD, prolonged PACU secondary to RD and analgesic intervention need), logistic regression was performed. […] Thus, maximum FLACC scores were analyzed using a zero-inflated negative binomial model to appropriately capture the distribution of this variable. […] To select the best fitting model, log likelihood, Akaike and Bayesian Information criterion were compared, and residuals were examined. […] To assess the single SNP association with the outcomes, additive models were used, in which the genotypes were recoded and tested as continuous variables. For the four bi-allelic SNPs, genotypes were recoded to 0, 1 and 2 according to the number of minor alleles. For rs2032582, GG genotype was recoded as 0; GA and GT genotypes were combined and recoded as 1, and TT and TA genotypes as 2. Statistical modeling was conducted with white and black patients separately and combined. When races were combined, the effects of race and race*SNP interaction were tested.

CN1CC[C@]23c4c5ccc(O)c4O[C@H]2[C@@H](O)C=C[C@H]3[C@H]1C5 [morphine]
Analges. % (analgesic interventions %) [1]: 88%
Maximum FLACC [1]: 5 (4-8)
Post-Operative morphine (Blacks, ABCB1 Rs1128503 CC, N=24, mean ± SD): 0.12 ± 0.08 mg/kg
Analges. % (analgesic interventions %) [2]: 89%
Maximum FLACC [2]: 6 (3-9)
Post-Operative morphine (Blacks, ABCB1 Rs1128503 TC, N=18, mean ± SD): 0.13 ± 0.05 mg/kg
Analges. % (analgesic interventions %) [3]: 100%
Maximum FLACC [3]: 4 (0-8)
Post-Operative morphine (Blacks, ABCB1 Rs1128503 TT, N=2, mean ± SD): 0.08 ± 0.03 mg/kg
Analges. % (analgesic interventions %) [4]: 100%
Maximum FLACC [4]: 4 (4-4)
Post-Operative morphine [4]: 0.08 mg/kg
Analges. % (analgesic interventions %) [5]: 91%
Maximum FLACC [5]: 5 (3-8)
Post-Operative morphine (Blacks, ABCB1 Rs2032582 GG, N=35, mean ± SD): 0.12 ± 0.07 mg/kg
Analges. % (analgesic interventions %) [6]: 75%
Maximum FLACC [6]: 8 (2-9)
Post-Operative morphine (Blacks, ABCB1 Rs2032582 GT, N=8, mean ± SD): 0.11 ± 0.04 mg/kg
Analges. % (analgesic interventions %) [7]: 100%
Maximum FLACC [7]: 8 (8-8)
Post-Operative morphine [7]: 0.04 mg/kg
Analges. % (analgesic interventions %) [8]: 88%
Maximum FLACC [8]: 5 (3-8)
Post-Operative morphine (Blacks, ABCB1 Rs2229109 CC, N=43, mean ± SD): 0.12 ± 0.06 mg/kg
Analges. % (analgesic interventions %) [9]: 88%
Maximum FLACC [9]: 5 (3-8)
Post-Operative morphine (Blacks, ABCB1 Rs9282564 AA, N=41, mean ± SD): 0.12 ± 0.07 mg/kg
Analges. % (analgesic interventions %) [10]: 100%
Maximum FLACC [10]: 8 (8-10)
Post-Operative morphine (Blacks, ABCB1 Rs9282564 GA, N=3, mean ± SD): 0.10 ± 0.00 mg/kg
Analges. % (analgesic interventions %) [11]: 89%
Maximum FLACC [11]: 5 (4-8)
Post-Operative morphine (Blacks, ABCB1 rs10456542 CC, N=27, mean ± SD): 0.12 ± 0.07 mg/kg
Analges. % (analgesic interventions %) [12]: 86%
Maximum FLACC [12]: 7 (1-8)
Post-Operative morphine (Blacks, ABCB1 rs10456542 TC, N=14, mean ± SD): 0.12 ± 0.05 mg/kg
Analges. % (analgesic interventions %) [13]: 100%
Maximum FLACC [13]: 8 (3-8)
Post-Operative morphine (Blacks, ABCB1 rs10456542 TT, N=3, mean ± SD): 0.12 ± 0.11 mg/kg
Analges. % (analgesic interventions %) [14]: 57%
Maximum FLACC [14]: 3 (0-5)
Post-Operative morphine (Whites, ABCB1 Rs1128503 CC, N=70, mean ± SD): 0.09 ± 0.04 mg/kg
Analges. % (analgesic interventions %) [15]: 57%
Maximum FLACC [15]: 2 (0-5)
Post-Operative morphine (Whites, ABCB1 Rs1128503 TC, N=102, mean ± SD): 0.10 ± 0.05 mg/kg
Analges. % (analgesic interventions %) [16]: 53%
Maximum FLACC [16]: 1 (0-5)
Post-Operative morphine (Whites, ABCB1 Rs1128503 TT, N=47, mean ± SD): 0.08 ± 0.04 mg/kg
Analges. % (analgesic interventions %) [17]: 43%
Maximum FLACC [17]: 2 (1-5)
Post-Operative morphine (Whites, ABCB1 Rs2032582 GA, N=7, mean ± SD): 0.09 ± 0.05 mg/kg
Analges. % (analgesic interventions %) [18]: 58%
Maximum FLACC [18]: 4 (0-6)
Post-Operative morphine (Whites, ABCB1 Rs2032582 GG, N=65, mean ± SD): 0.09 ± 0.04 mg/kg
Analges. % (analgesic interventions %) [19]: 57%
Maximum FLACC [19]: 2 (0-5)
Post-Operative morphine (Whites, ABCB1 Rs2032582 GT, N=100, mean ± SD): 0.09 ± 0.05 mg/kg
Analges. % (analgesic interventions %) [20]: 100%
Maximum FLACC [20]: 8 (8-8)
Post-Operative morphine [20]: 0.21 mg/kg
Analges. % (analgesic interventions %) [21]: 52%
Maximum FLACC [21]: 1 (1-5)
Post-Operative morphine (Whites, ABCB1 Rs2032582 TT, N=46, mean ± SD): 0.09 ± 0.04 mg/kg
Analges. % (analgesic interventions %) [22]: 50%
Maximum FLACC [22]: 2 (1-4)
Post-Operative morphine (Whites, ABCB1 Rs2229109 CA, N=14, mean ± SD): 0.06 ± 0.02 mg/kg
Analges. % (analgesic interventions %) [23]: 57%
Maximum FLACC [23]: 2 (0-5)
Post-Operative morphine (Whites, ABCB1 Rs2229109 CC, N=205, mean ± SD): 0.09 ± 0.05 mg/kg
Analges. % (analgesic interventions %) [24]: 56%
Maximum FLACC [24]: 2 (0-5)
Post-Operative morphine (Whites, ABCB1 Rs9282564 AA, N=171, mean ± SD): 0.09 ± 0.04 mg/kg
Analges. % (analgesic interventions %) [25]: 54%
Maximum FLACC [25]: 2 (0-4)
Post-Operative morphine (Whites, ABCB1 Rs9282564 GA, N=46, mean ± SD): 0.09 ± .05 mg/kg
Analges. % (analgesic interventions %) [26]: 100%
Maximum FLACC [26]: 7 (6-7)
Post-Operative morphine (Whites, ABCB1 Rs9282564 GG, N=2, mean ± SD): 0.16 ± 0.07 mg/kg
Analges. % (analgesic interventions %) [27]: 63%
Maximum FLACC [27]: 4 (0-6)
Post-Operative morphine (Whites, ABCB1 rs10456542 CC, N=49, mean ± SD): 0.09 ± 0.03 mg/kg
Analges. % (analgesic interventions %) [28]: 52%
Maximum FLACC [28]: 2 (0-4)
Post-Operative morphine (Whites, ABCB1 rs10456542 TC, N=100, mean ± SD): 0.09 ± 0.05 mg/kg
Analges. % (analgesic interventions %) [29]: 57%
Maximum FLACC [29]: 2 (1-5)
Post-Operative morphine (Whites, ABCB1 rs10456542 TT, N=70, mean ± SD): 0.10 ± 0.05 mg/kg
post-operative morphine in patients who needed intervention (average): 0.10 ± 0.05 mg/kg
